Reference: US20230056994A1, “NECROPTOSIS MODULATORS, SCREENING METHODS AND PHARMACEUTICAL COMPOSITIONS” (NEURALIS SA, priority 2019, published 2023)
Entries after “also recorded” stand apart in the source; their conditions may differ.

How the values were obtained:
[1] = test system: phosphorylation state of MLKL in MCF7 cells; assay: Western blot of phospho-MLKL (Ser358) in MCF7 cells, necroptosis induced by TNF-alpha and z-VAD-fmk; assay type: cell-based; settings: then TNF a 10 ng/ml 20 hrs, z-VAD-fmk 10 μM, One-Way ANOVA
Description: (§1) MCF7 and HT29 cells were cultured in DMEM along with 10% FBS, 1% Penicillin-Streptomycin and 1% Glutamine. The cells were pre-treated with 0.1% DMSO or z-VAD-fmk (10 μM) to induce necroptosis (positive control). In order to evaluate the effect of candidate agents on the induced necroptosis, Necrostatin 1 (Nec-1 (10 μM)) or Estetrol (E4 (10^-7 M) was added to the cells for 1 hr and was further subjected to Tumor Necrosis Factor (TNF) a (10 ng/ml) treatment for 20 hrs. The cells were then washed, followed by isolation and quantification of the total protein. 20 μg of protein from each treatment group was used for SDS-PAGE separation (10% […] gel) and was then transferred to PVDF membrane via a transfer apparatus. Post transfer, the membranes were blocked with 5% milk and further washed with the wash buffer. The membranes were further incubated with anti-Phospho-MLKL (Ser358) Polyclonal Antibody; Cat No: PA5-105678 (Thermofisher Scientific) at a dilution of 1/1000. The membranes were then incubated with secondary antibody (anti-Rabbit IgG, HRP-linked antibody, Cell signaling, Cat No: 7074S) at a dilution of 1/1000 and visualized using Western Blot substrate (Western Lightning Plus-ECL, Perkin Elmer, NEL104001EA) as per manufacturer's protocols. The results are shown in FIGS. 6 and 7, respectively for MCF7 and HT29 cells.

[2] = test system: phosphorylation state of MLKL in HT29 cells; assay: Western blot of phospho-MLKL (Ser358) in HT29 cells, necroptosis induced by TNF-alpha and z-VAD-fmk; assay type: cell-based; settings: then TNF a 10 ng/ml 20 hrs, z-VAD-fmk 10 μM, One-Way ANOVA
Description: as §1

[3] = Nec-1 10 μM for 1 hr, listed as Nec 1
[4] = Nec-1 10 μM for 1 hr, listed as Necrostatin 1
[5] = E4 10^-7 M for 1 hr, listed as E4

SMILES	reduction of MLKL phosphorylation versus TNF-alpha + z-VAD-fmk induced cells [1, 3]	reduction of MLKL phosphorylation versus TNF-alpha + z-VAD-fmk induced cells [1, 4]	reduction of MLKL phosphorylation versus TNF-alpha + z-VAD-fmk induced cells [2, 3]	reduction of MLKL phosphorylation versus TNF-alpha + z-VAD-fmk induced cells [2, 4]	reduction of MLKL phosphorylation versus TNF-alpha + z-VAD-fmk induced cells ([1]; E4 10^-7 M for 1 hr)	reduction of MLKL phosphorylation versus TNF-alpha + z-VAD-fmk induced cells [1, 5]	reduction of MLKL phosphorylation versus TNF-alpha + z-VAD-fmk induced cells ([2]; E4 10^-7 M for 1 hr)	reduction of MLKL phosphorylation versus TNF-alpha + z-VAD-fmk induced cells [2, 5]
CN1C(=O)C(Cc2c[nH]c3ccccc23)NC1=S (centres unmarked) [Nec-1, Necrostatin-1]	statistically significant (*p<0.05); also recorded: statistically relevant (*p<0.05)	decrease of phosphorylation of MLKL	statistically Non-Significant (NS)	decrease of phosphorylation of MLKL	–	–	–	–
C[C@]12CC[C@@H]3c4ccc(O)cc4CC[C@H]3[C@@H]1[C@@H](O)[C@@H](O)[C@@H]2O [Estetrol]	–	–	–	–	decrease of phosphorylation of MLKL	statistically relevant (**p<0.01)	decrease of phosphorylation of MLKL	statistically relevant (**p<0.01)
